Results published in patent EP4464318A1, “TARGETING TGF-B-ACTIVATED KINASE-1 ACTIVATION IN THE TREATMENT OF NEUROINFLAMMATORY CONDITIONS” (Albert-Ludwigs-Universität Freiburg, priority 2023, dated 2024).

Columns and labels:
TAK1 = target: T1, TAK1 (Homo sapiens, UniProt O43318); conditions: cited from earlier work
T1 sequence (O43318 1-606): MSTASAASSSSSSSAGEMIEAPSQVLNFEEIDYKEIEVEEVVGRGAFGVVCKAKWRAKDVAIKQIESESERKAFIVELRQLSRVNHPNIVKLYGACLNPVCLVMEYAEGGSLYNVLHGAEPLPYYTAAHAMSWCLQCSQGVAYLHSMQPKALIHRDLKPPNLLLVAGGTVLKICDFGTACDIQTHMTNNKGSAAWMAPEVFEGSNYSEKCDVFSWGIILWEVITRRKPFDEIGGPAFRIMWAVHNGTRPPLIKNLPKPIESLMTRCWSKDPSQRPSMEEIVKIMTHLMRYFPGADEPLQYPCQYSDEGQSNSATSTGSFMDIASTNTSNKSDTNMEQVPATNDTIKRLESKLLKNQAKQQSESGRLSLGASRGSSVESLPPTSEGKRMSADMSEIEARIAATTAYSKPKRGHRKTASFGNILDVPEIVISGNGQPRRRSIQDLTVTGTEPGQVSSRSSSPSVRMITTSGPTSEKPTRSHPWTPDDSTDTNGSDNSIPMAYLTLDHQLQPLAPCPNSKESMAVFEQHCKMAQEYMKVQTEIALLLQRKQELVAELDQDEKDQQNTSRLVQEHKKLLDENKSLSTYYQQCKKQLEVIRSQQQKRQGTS

[1] = system: B-ALL (E2A-PBX1) bearing mice treated with CD19 CAR T cells; assay: Elevated plus maze test; format: in vivo; conditions: CAR19 T cells, CSF1R inhibitor diet vs control diet, from one week prior to tumor injection (Fig. 4)
Description: (§1) Mice were treated with either takinib (Selleckchem, Germany) or vehicle after B-NHL or B-ALL transplantation. For the treatment, stocks of 3 mg/ml and 10 mg/ml of takinib were prepared in DMSO. The stocks were diluted in 0.5% carboxymethylcellulose solution (vehicle) and administered by intraperitoneal injection at a dosage of 0.15 mg/kg (takinib-FACS) and 0.5 mg/kg (survival and behaviour studies) per mouse per day from day 3 to day 9 following either B-NHL or B-ALL transplant, as described previously (13a). An equal volume of corresponding vehicles was administrated to the control groups daily from day 3 until day 9. For survival expriments, 0.5 mg/kg takinib or vehicle per mouse per day was administered intraperitonially from day 3 to day 11 following either B-NHL or B -ALL transplant, as described previously.
(§2) The E2A-PBX1 cell line (15a) was provided by Dr. Federico Simonetta (Stanford, USA). […] The mice were perfused with ice cold PBS on day 10 and the CNS was analysed. […]
(§3) Mice received PLX5622 (CSF1R inhibitor) chow or control chow (Research Diets) for 7 days prior to the experiment to achieve microglial depletion. […] The effectiveness of microglia depletion was determined by flow cytometry.
We performed the elevated plus maze test to evaluate the anxiety behaviour in mice as described previously with minor modifications (18a). […] We quantified the time they spent in the open arm in minutes. […]

B-ALL (E2A-PBX1) = assay: Tumor burden and myeloid cells in spleen and BM of B-ALL bearing mice on CSF1R inhibitor diet; format: in vivo
Description: (§4) Mice received PLX5622 (CSF1R inhibitor) chow or control chow (Research Diets) for 7 days prior to the experiment to achieve microglial depletion. C57BI/6 mice were irradiated with 5.5 Gy and transplanted with 2×10^5 E2A-PBX1 cell lines. 10×10^6 CD19 CAR T were injected on day 7 and behaviour studies were performed on day 10. Mice were maintained on PLX5622 chow or control chow throughout the duration of the experiment. The effectiveness of microglia depletion was determined by flow cytometry.

[2] = system: B-ALL (E2A-PBX1) bearing mice treated with CD19 CAR T cells; assay: Novel object recognition test; format: in vivo; conditions: CAR19 T cells, CSF1R inhibitor diet vs control diet, from one week prior to tumor injection (Fig. 4)
Description: as §1, with “For survival expriments, 0.5 mg/kg takinib or vehicle per mouse per day was administered intraperitonially from day 3 to day 11 following either B-NHL or B -ALL transplant, as described previously.” left out
as §2, §3
Novel object recognition test was performed as described previously with modifications (17a). […] The amount of time spent by the mouse exploring the novel object to the total exploration time is calculated as an index of recognition memory.

[3] = system: B-ALL (E2A-PBX1) bearing mice treated with CD19 CAR T cells; assay: Grip strength test; format: in vivo
Description: as §1
(§5) The E2A-PBX1 cell line (15a) was provided by Dr. Federico Simonetta (Stanford, USA). C57BI/6 recipients were sublethally irradiated with 5.5 Gy and transplanted with 2×10^5 E2A-PBX1 cells intravenously. […] The mice were perfused with ice cold PBS on day 10 and the CNS was analysed. […]
Mice received PLX5622 (CSF1R inhibitor) chow or control chow (Research Diets) for 7 days prior to the experiment to achieve microglial depletion. […] The effectiveness of microglia depletion was determined by flow cytometry. […]

[4] = system: B-ALL (E2A-PBX1) bearing mice treated with CD19 CAR T cells; assay: BBB leakage (FITC-dextran extravasation) in the CNS; format: in vivo
Description: as §1, §5, §3

[5] = system: microglia (CD45lo CD11b+); assay: Microglial depletion: flow cytometry of CNS cells of B-ALL bearing mice; format: in vivo
Description: as §4
(§6) The CNS cells were isolated as described previously (20a) with modifications. Briefly, the mice were anesthetized and were perfused with 1X cold PBS. The CNS was isolated, homogenized and filtered through a 70 µm nylon filter. The homogenate was suspended in 37% isotonic Percoll solution and centrifuged at 800 × g for 30 min without a break in application. The myelin layer was removed from the top of 37% Percoll and the pelleted cells were washed with 1X PBS for further analysis.

B-ALL (E2A-PBX1) cells = assay: Viability of B-ALL (E2A-PBX1) cells, 24h; format: cell-based, murine; conditions: indicated concentrations of takinib, 24h (Fig. 28b)
[6] = system: B-ALL (E2A-PBX1) bearing mice; assay: Survival of B-ALL (E2A-PBX1) bearing mice that received CD19 CAR T cells; format: in vivo
Description: as §1, §2
(§7) For sample size in the murine survival experiments a power analysis was performed. A sample size of at least n=8 per group was determined by 80% power to reach a statistical significance of 0.05 in order to detect an effect size of at least 1.06. Differences in animal survival (Kaplan-Meier survival curves) were analyzed by Mantel Cox test. […]

[7] = system: microglia (CD45lo CD11b+); assay: Flow cytometry of microglia from the CNS of B-NHL (A20) bearing mice treated with CD19 CAR T cells; format: in vivo
Description: as §1
(§8) A20 Luc^+ GFP^+ immortalized murine lymphoma cell lines were used to induce B-NHL in mice. BALB/c recipients were sublethally irradiated with 4.5 Gy and transplanted with 1×10^6 A20 Luc^+ GFP^+ intravenously. 7 days later 10×10^6 syngeneic CD19 CAR T cells generated from BALB/c mice were administered. The mice were perfused with Ice cold PBS on day 10 and CNS was analysed. For survival experiments BALB/c recipients were sublethally irradiated with 4.5 Gy and transplanted intravenously with 1×10^5 A20 Luc^+ GFP^+ cells. Seven days later 5×10^6 syngeneic CD19 CAR T cells from BALB/c mice were administered. Tumor burden was checked by bioluminescence imaging.
as §6

[8] = system: NK1.1+, CD45+, CD11b+ and CD3+ cells; assay: Immune cell counts in spleen and BM of B-NHL (A20) bearing mice that received CD19 CAR T cells; format: in vivo; conditions: takinib i.p. day 3 to day 9 vs vehicle (Fig. 24, 25)
Description: as §1
as §8, with “Seven days later 5×10^6 syngeneic CD19 CAR T cells from BALB/c mice were administered. Tumor burden was checked by bioluminescence imaging.” left out

B-NHL (A20) cells [9] = assay: Viability of B-NHL (A20) cells, 24h; format: cell-based, murine; conditions: indicated concentrations of takinib, 24h (Fig. 28a)
B-NHL (A20) cells [10] = assay: Co-culture of B-NHL (A20) cells with NT or CD19 CAR T cells in vitro; format: cell-based; conditions: co-culture E:T 5:1, 10µM takinib or vehicle (Fig. 8c)
Description: A20 Luc^+ GFP^+ cells were stained with cell trace violet as per the manufacturer's instructions (Life Technologies). A20 Luc^+ GFP^+ cells and CD19 CAR T cells were incubated at ratios 1:1, 2:1, 5:1, and 10:1 for 16h at 37° C. Following incubation, cells were harvested and stained with live/dead far red fixable viability stain (Invitrogen).
(§9) B-NHL cells were labelled with cell trace violet (Invitrogen) as per the manufacturer's instructions. B-NHL cells and NT or CD19 CAR T cells were cultured with 0:1, 1:1, 1:5 and 1:10 ratios for 16-20h. Post-incubation cells were washed and stained for live dead zombie stain and specific lysis was calculated. For analyzing the expression of T cell markers, B-NHL and NT or CD19 CAR T cells were co-cultured at a ratio of 1:5 for 16-20h and treated with either 10µM of takinib or vehicle.

B-NHL (A20) = B-NHL (A20) lymphoma burden in vivo (bioluminescence, CD19+ cells in bone marrow); conditions: CAR19/takinib vs CAR19/vehicle treated mice (Fig. 8a,b)
Description: as §1
as §8, with “Seven days later 5×10^6 syngeneic CD19 CAR T cells from BALB/c mice were administered. Tumor burden was checked by bioluminescence imaging.” left out

B-NHL (A20) bearing mice = assay: Survival of B-NHL (A20) bearing mice that received CD19 CAR T cells; format: in vivo
Description: as §1
A20 Luc^+ GFP^+ immortalized murine lymphoma cell lines were used to induce B-NHL in mice. […] The mice were perfused with Ice cold PBS on day 10 and CNS was analysed. […]
as §7

CD19 CAR T cells = assay: T cell markers and T cell viability in co-culture of B-NHL and NT/CD19 CAR T cells; format: cell-based
Description: as §9

Structure (SMILES): CCCn1c(NC(=O)c2cccc(C(N)=O)c2)nc2ccc(CN3CCCCC3)cc21 [HS-276]
- IC50 (TAK1): 2.3 nM
- Ki (TAK1): 2.5 nM

Structure (SMILES): COc1ncc(F)cc1CNc1ccc(Cc2c[nH]c3ncc(C)cc23)c(F)n1 [PLX5622]
- neurocognitive deficits, elevated plus maze test [1]: improved neurocognitive deficits
- Ly6C+ and F4/80+ myeloid cells in the spleen (B-ALL (E2A-PBX1); CSF1R inhibitor diet vs control diet (Fig. 22c,d)): no impact
- lymphoma burden in spleen and BM (B-ALL (E2A-PBX1); CSF1R inhibitor prior to CAR19 T cell transfer vs vehicle-treated mice (Fig. 22a,b)): did not reduce
- neurocognitive deficits, novel object recognition test [2]: improved neurocognitive deficits
- grip strength ([3]; CAR19 T cells, CSF1R inhibitor diet vs control diet (Fig. 4)): no difference
- BBB leakage ([4]; CAR19 T cell-treated mice, CSF1R inhibitor (PLX5622) diet vs control diet (Fig. 23)): did not reduce
- microglia numbers ([5]; PLX5622 diet day -7 to day 10 vs control (Fig. 21b-d)): declined
- CD45hi, Ly6G+ and Ly6C+ myeloid cells infiltrating the CNS ([5]; PLX5622 diet vs control diet (Fig. 21e-g)): no significant changes

Structure (SMILES): COCCN1CCN(Cc2ccc(-c3n[nH]c4c3C(=O)c3c(NC(=O)NN5CCOCC5)cccc3-4)cc2)CC1 [RGB-286638 free base]
- IC50 (TAK1): 5 nM

Structure (SMILES): CCCn1/c(=N/C(=O)c2cccc(C(N)=O)c2)[nH]c2ccccc21 [Takinib]
- cell death of B-ALL (E2A-PBX1) cells (B-ALL (E2A-PBX1) cells): dose-dependent cell death
- survival ([6]; CAR19/takinib vs CAR19/vehicle, E2a-PBX1 model, 0.5 mg/kg i.p. (Fig. 8f)): increased
- expression of TNF in microglia ([7]; takinib 0.15 mg/kg per mouse per day i.p. day 3 to day 9 vs vehicle (Fig. 6b,c)): reduced expression
- p38 phosphorylation in microglia ([7]; takinib 0.15 mg/kg per mouse per day i.p. day 3 to day 9 vs vehicle (Fig. 6f,g)): reduced
- expression of GM-CSF in microglia ([7]; takinib 0.15 mg/kg per mouse per day i.p. day 3 to day 9 vs vehicle (Fig. 6d,e)): reduced expression
- p70s6K total protein in microglia ([7]; takinib 0.5 mg/kg per mouse per day i.p. day 3 to day 9 vs vehicle (Fig. 6h,i)): reduced
- myeloid cell, T cell or NK cell counts in the periphery [8]: did not reduce
- cell death of B-NHL (A20) cells (B-NHL (A20) cells [9]): dose-dependent cell death
- cytotoxicity against B-NHL (A20) in vitro (B-NHL (A20) cells [10]): increased cytotoxicity
- grip strength ([3]; CAR19 T cells + takinib vs vehicle (Fig. 6l)): no difference
- B-NHL (A20) lymphoma burden (B-NHL (A20)): decreased
- survival (B-NHL (A20) bearing mice; CAR19/takinib vs CAR19/vehicle treated B-NHL bearing mice, 0.5 mg/kg i.p. (Fig. 8d)): survived longer
- BBB leakage in the cortex ([4]; B-ALL (E2A-PBX1) bearing mice after CAR19 T cell transfer, takinib vs vehicle (Fig. 6m, 26a)): trend towards a lower BBB leakage
- markers of cytotoxicity including perforin, CD107a, IFN-y, and TNF (CD19 CAR T cells; CD3+ T cells, co-culture 1:5, 10µM takinib or vehicle (Fig. 29a-g)): remained unaffected
- viability of CAR19 or NT T cells (CD19 CAR T cells; co-culture with B-NHL (A20), 10µM takinib or vehicle (Fig. 29h)): remained unaffected

Structure (SMILES): C[C@]12C=CC(=O)C=C1CC[C@@H]1[C@@H]2[C@@H](O)C[C@@]2(C)[C@H]1CC[C@]2(O)C(=O)CO [prednisolone]
- protective effect of CAR19 T cells against leukemia expansion ([6]; B-ALL (E2a-PBX1) bearing mice, prednisolone day 3 to day 9 (Fig. 8g)): reduced
- protective effect of CAR19 T cells against lymphoma growth (B-NHL (A20) bearing mice; B-NHL (A20) bearing mice, prednisolone day 3 to day 9 (Fig. 8e)): reduced
